# Test results as given in US12239650B2, “Compounds for treating and preventing net associated complications” (The Australian National University, priority 2019, dated 2025).
# What was measured:
# [1] = tested on: anti-proliferative effect of histones on HMEC-1; test: HMEC-1 proliferation (3H-thymidine) after histone exposure; format: cell-based, human; conditions: compounds 100 μg ml^−1, histones 400 μg ml^−1, FIG. 8b
# [2] = Rat ischemia reperfusion tissue (skin) flap model; format: in vivo; conditions: rat skin flap IRI, 50 mg kg^−1 i.p., 72 h, FIG. 7d
# From the text: Rat ischemia reperfusion tissue flap model. The procedure employed is largely based on a previously described method (Bone, R. C. et al. Definitions for sepsis and organ failure and guidelines for the use of innovative therapies in sepsis. The ACCP/SCCM Consensus Conference Committee. American College of Chest Physicians/Society of Critical Care Medicine. Chest 101, 1644-1655 (1992)). Briefly, male Wistar rats were anaesthetized, locally depilated and a 3 cm by 6 cm fasciocutaneous flap was excised leaving the vascular pedicle intact. […] The clamp was removed 10 h post-application permitting returned blood flow to the flap. Test compounds (50 mg kg^−1) or saline were administered i.p. 5 min prior to clamp application and 5 min following its removal. The rats were monitored for a total experimental period of 72 h during which rats received additional compound or saline i.p. at 24 and 48 h post-op. The ‘Control No Clamp’ rats had the tissue flap excised and rubber placed underneath prior to re-suturing, however, the vessel was not clamped and they received saline at the same time points as the other rats. At the end of the experimental period the viability of the flaps was determined by the percentage of black necrotic or reddened areas versus pink viable areas. […]
# [3] = tested on: histone-mediated RBC aggregation; test: Histone-mediated erythrocyte aggregation (flow cytometry, scanning EM); format: cell-based, human
# Experimental: (§1) Human erythrocytes (RBC) were incubated for 1 h at 37° C. alone (‘Saline’ control) or in the presence of histones (400 μg ml^−1) with or without mCBS (200 μg ml^−1). a, Percentage of RBC aggregation measured by flow cytometry based on forward (FSC) and side (SSC) scatter parameters and an appropriate gating strategy to discriminate aggregated from normal (non-aggregated) RBC. b, Scanning electron micrographs depicting level of RBC aggregation at low and high magnification following the three treatments depicted in (a). c, Concentration dependent inhibition of histone-mediated RBC aggregation by mCBS and MTS, in this case RBC aggregation being calculated by flow cytometry as fold increase in RBC auto-fluorescence relative to RBC in the absence of histones. The fold increase values also provide an estimate of the number of RBC in each aggregate. d, Retention of RBC in an artificial spleen that measures RBC deformability. RBC were incubated with increasing concentrations of histones for 1 h and, at the highest concentration used (400 μg ml^−1), also incubated with either mCBS or MTS (100 and 200 μg ml^−1), prior to passage through the artificial spleen. Data are mean±s.e.m. (n=3 biological replicates). ***P<0.001, ****P<0.0001 (one way ANOVA with Dunnett's multiple comparisons test).
# In vitro erythrocyte microscopy, aggregation, fragility and deformability assays. […] J Biol Chem 289, 19531-19537 (2014)). Similarly, erythrocyte fragility induced by histones, in the presence or absence of inhibitors, was quantified using a sheer stress assay that we developed recently (Kordbacheh, F., O'Meara, C. H., Coupland, L. A., Lelliott, P. M. & Parish, C. R. Extracellular histones induce erythrocyte fragility and anemia. Blood 130, 2884-2888 (2017)). Finally, the reduced deformability of erythrocytes in the presence of histones and the effect of inhibitors on this process was assessed by measuring the passage of erythrocytes through an artificial human spleen (Kordbacheh, F., O'Meara, C. H., Coupland, L. A., Lelliott, P. M. & Parish, C. R. Extracellular histones induce erythrocyte fragility and anemia. Blood 130, 2884-2888 (2017); and Deplaine, G. et al. The sensing of poorly deformable red blood cells by the human spleen can be mimicked in vitro. Blood 117, e88-95 (2011)).
# [4] = tested on: histone-induced erythrocyte rigidity; test: Erythrocyte deformability, passage through artificial spleen; format: cell-based, human; conditions: histones 400 μg ml^−1, compounds 100 and 200 μg ml^−1, FIG. 3d
# Experimental: as §1, with “RBC were incubated with increasing concentrations of histones for 1 h and, at the highest concentration used (400 μg ml^−1), also incubated with either mCBS or MTS (100 and 200 μg ml^−1), prior to passage through the artificial spleen. Data are mean±s.e.m. (n=3 biological replicates). ***P<0.001, ****P<0.0001 (one way ANOVA with Dunnett's multiple comparisons test).” left out
# In vitro erythrocyte microscopy, aggregation, fragility and deformability assays. […] Similarly, erythrocyte fragility induced by histones, in the presence or absence of inhibitors, was quantified using a sheer stress assay that we developed recently (Kordbacheh, F., O'Meara, C. H., Coupland, L. A., Lelliott, P. M. & Parish, C. R. Extracellular histones induce erythrocyte fragility and anemia. Blood 130, 2884-2888 (2017)). […]
smiles,measurement,setting,value
"O=S(=O)(O)OC[C@H]1O[C@H](O[C@H]2[C@H](OS(=O)(=O)O)[C@@H](OS(=O)(=O)O)C(OS(=O)(=O)O)O[C@@H]2COS(=O)(=O)O)[C@H](OS(=O)(=O)O)[C@@H](OS(=O)(=O)O)[C@@H]1O[C@H]1O[C@H](COS(=O)(=O)O)[C@@H](OS(=O)(=O)O)[C@H](OS(=O)(=O)O)[C@H]1OS(=O)(=O)O (some centres unmarked) [MTS, maltotriose per-O-sulfate]",Neutralization of anti-proliferative effect of histones on HMEC-1 monolayers,[1],completely neutralized
same,Viable area of the skin flap,[2],highly variable
same,Effectiveness of MTS relative to mCBS in preventing RBC aggregation,[3]; FIG. 3c,~2 fold
same,Prevention of histone-mediated RBC aggregation (auto-fluorescence),"[3]; histones 400 μg ml^−1, FIG. 3c",prevented aggregation in a concentration dependent manner
same,Ability of erythrocytes to passage through an artificial spleen,[4],totally restored
